Results taken from ChEMBL document CHEMBL1147640, “Antitumor agents. Part 232: Synthesis of cyclosulfite podophyllotoxin analogues as novel prototype antitumor agents” (2004).

What was measured:
Settings in all cases: Homo sapiens, read-out: ED50 (the source's name)
PC-3 = assay: Effective dose of compound against replication of PC-3 cell line was evaluated; assay type: functional
SK-MEL-2 = assay: Effective dose of compound against replication of SK-MEL-2 cell line was evaluated; assay type: functional
U-87 MG = assay: Effective dose of compound against replication of U87MG cell line was evaluated; assay type: functional, U-87MG ATCC
HCT-8 = assay: Effective dose of compound against replication of HCT-8 cell line was evaluated; assay type: functional
MCF7 = assay: Effective dose of compound against replication of MCF-7 cell line was evaluated; assay type: functional
KB [1] = assay: Effective dose of compound against replication of KB/7d cell line was evaluated; assay type: functional
A549 = assay: Effective dose of compound against replication of A549 cell line was evaluated; assay type: functional
KB [2] = assay: Effective dose of compound against replication of KB-Vin cell line was evaluated; assay type: functional
HOS = assay: Effective dose of compound against replication of HOS cell line was evaluated; assay type: functional
1A9 = assay: Effective dose of compound against replication of 1A9 cell line was evaluated; assay type: functional
KB [3] = assay: Effective dose of compound against replication of KB cell line was evaluated; assay type: functional

| Structure (SMILES) | EC50 (PC-3) | EC50 (SK-MEL-2) | EC50 (U-87 MG) | EC50 (HCT-8) | EC50 (MCF7) | EC50 (KB [1]) | EC50 (A549) | EC50 (KB [2]) | EC50 (HOS) | EC50 (1A9) | EC50 (KB [3]) |
| --- | --- | --- | --- | --- | --- | --- | --- | --- | --- | --- | --- |
| COc1cc([C@@H]2c3cc4c(cc3[C@@H](Nc3ccc([N+](=O)[O-])cc3)[C@H]3COS(=O)OC[C@H]23)OCO4)cc(OC)c1O (some centres not stated) | > 20 µM | 7.9 µM | 8 µM | 10 µM | 2.5 µM | 2.9 µM | 8 µM | 7.1 µM | 6 µM | 4.2 µM | 5.1 µM |
| COc1cc([C@@H]2c3cc4c(cc3[C@@H](Nc3ccc([N+](=O)[O-])cc3)[C@H]3COC(=O)[C@H]23)OCO4)cc(OC)c1O | 8.9 µM | 3 µM | 5.5 µM | 1.6 µM | 24.5 µM | 1.5 µM | < 0.1 µM | 4.1 µM | < 1.6 µM | < 1.6 µM | 3.5 µM |
